According to US20240110220A1, “DETECTING BETA-LACTAMASE ENZYME ACTIVITY” (COMMISSARIAT A L'ENERGIE ATOMIQUE ET AUX ENERGIES …, priority 2021, published 2024):

Test system: bacterial colonies
Assay: Validation of the rapid test strip on bacterial colonies sensitive or resistant to third-generation cephalosporins (Table 12)
Format: biochemical
Set-up: key: A signal on the TL is considered as “P”; An absence of signal on the TL is defined as “N”
Experimental: In order to validate the test strip on bacterial colonies for its clinical use, […].
In order to carry out these tests, all of the solutions below have been prepared in the buffer strip having, for composition: 0.1 M pH 8 Tris buffer/HCL+0.15 M NaCl+0.5% Tween 20+1% chaps+0.01% sodium azide. […] The tracer is in dried format on the CP. […] A CL was produced. It consists of anti-tracer antibodies. The migration is carried out in a plastic cassette.
A bacterial colony was sampled from an URI-4 agar with a 1 μl ose, then deposited in the previously prepared Eppendorf tube. The tube was vortexed for five seconds, then incubated for 30 minutes at ambient temperature. Once the incubation was finished, 100 μl was sampled and deposited on the test strip. The reading is carried out after 10 minutes migration. A signal on the TL is considered as “P”. An absence of signal on the TL is defined as “N”.

## CO/N=C(\C(=O)N[C@@H]1C(=O)N2C(C(=O)O)=C(COC(C)=O)CS[C@H]12)c1csc(N)n1 [non-hydrolysed cefotaxime, cefotaxime]
C. freundii, CMY-135 + MOX-9 + OXA-372 + OXA-10, isolate number 1, strains capable of hydrolysing cefotaxime
  results of the test: P
C. freundii, CMY-150 + LMB-1, isolate number 1, strains capable of hydrolysing cefotaxime
  results of the test: P
C. freundii, CTX-M + VIM + OXA-48, isolate number 1, strains capable of hydrolysing cefotaxime
  results of the test: P
C. freundii, CTX-M-1, isolate number 1, strains capable of hydrolysing cefotaxime
  results of the test: P
C. freundii, CTX-M-15 + TEM-1 + CMY-48 + OXA-48 like, isolate number 1, strains capable of hydrolysing cefotaxime
  results of the test: P
C. freundii, CTX-M-15, isolate number 1, strains capable of hydrolysing cefotaxime
  results of the test: P
C. freundii, N/A, isolate number 1, strains not capable of hydrolysing cefotaxime
  results of the test: N
C. freundii, SHV-12 + TEM-1 + OXA-48, isolate number 1, strains capable of hydrolysing cefotaxime
  results of the test: P
C. freundii, SHV-12, isolate number 1, strains capable of hydrolysing cefotaxime
  results of the test: P
C. freundii, TEM-1 + KPC-2, isolate number 1, strains capable of hydrolysing cefotaxime
  results of the test: P
C. freundii, TEM-1 + VIM-2 + OXA-9 + OXA-10, isolate number 1, strains capable of hydrolysing cefotaxime
  results of the test: P
C. freundii, TEM-1 + VIM-2, isolate number 1, strains capable of hydrolysing cefotaxime
  results of the test: P
C. freundii, TEM-3 + Overexpressed AmpC, isolate number 2, strains capable of hydrolysing cefotaxime
  results of the test: P
C. koserii, CTX-M-1, isolate number 1, strains capable of hydrolysing cefotaxime
  results of the test: P
C. koserii, TEM-1 + OXA-48, isolate number 1, strains capable of hydrolysing cefotaxime
  results of the test: P
E. asburiae, IMI-2, isolate number 2, strains not capable of hydrolysing cefotaxime
  results of the test: N
E. asburiae, IMI-17, isolate number 1, strains not capable of hydrolysing cefotaxime
  results of the test: N
E. cloacae, CTX-M-9, isolate number 1, strains capable of hydrolysing cefotaxime
  results of the test: P
E. cloacae, FRI-1, isolate number 1, strains capable of hydrolysing cefotaxime
  results of the test: P
E. cloacae, GES-6, isolate number 1, strains capable of hydrolysing cefotaxime
  results of the test: P
E. cloacae, GIM-1, isolate number 1, strains capable of hydrolysing cefotaxime
  results of the test: P
E. cloacae, IMI-1, isolate number 1, strains not capable of hydrolysing cefotaxime
  results of the test: N
E. cloacae, IMI-3 + Overexpressed AmpC, isolate number 1, strains capable of hydrolysing cefotaxime
  results of the test: P
E. cloacae, N/A, isolate number 2, strains not capable of hydrolysing cefotaxime
  results of the test: N
E. cloacae, Overexpressed AmpC, isolate number 7, strains capable of hydrolysing cefotaxime
  results of the test: P
E. cloacae, TEM-3, isolate number 1, strains capable of hydrolysing cefotaxime
  results of the test: P
E. cloacae, TMB-1, isolate number 1, strains capable of hydrolysing cefotaxime
  results of the test: P
E. coli, CTX-M + NDM-5 + OXA-181, isolate number 1, strains capable of hydrolysing cefotaxime
  results of the test: P
E. coli, CTX-M + SHV + NDM-1 + OXA-48, isolate number 1, strains capable of hydrolysing cefotaxime
  results of the test: P
E. coli, CTX-M-9 + TEM-1 + KPC-2, isolate number 1, strains capable of hydrolysing cefotaxime
  results of the test: P
E. coli, CTX-M-15 + CMY-2 + OXA-204 + OXA-1, isolate number 1, strains capable of hydrolysing cefotaxime
  results of the test: P
E. coli, CTX-M-15 + CMY-4 + OXA-204 + OXA-1, isolate number 1, strains capable of hydrolysing cefotaxime
  results of the test: P
E. coli, CTX-M-15 + CMY-4 + OXA-204, isolate number 1, strains capable of hydrolysing cefotaxime
  results of the test: P
E. coli, CTX-M-15 + CMY-6 + NDM-4, isolate number 1, strains capable of hydrolysing cefotaxime
  results of the test: P
E. coli, CTX-M-15 + NDM-6 + OXA-1, isolate number 1, strains capable of hydrolysing cefotaxime
  results of the test: P
E. coli, CTX-M-15 + OXA-232 + OXA-1, isolate number 1, strains capable of hydrolysing cefotaxime
  results of the test: P
E. coli, CTX-M-15 + TEM-1 + CMY + NDM-1, isolate number 1, strains capable of hydrolysing cefotaxime
  results of the test: P
E. coli, CTX-M-93, isolate number 1, strains not capable of hydrolysing cefotaxime
  results of the test: N
E. coli, TEM-1 + CMY-16 + NDM-1 + OXA-1 + OXA-10, isolate number 1, strains capable of hydrolysing cefotaxime
  results of the test: P
E. coli, TEM-1 + NDM-9 + OXA-1, isolate number 1, strains capable of hydrolysing cefotaxime
  results of the test: P
K. oxytoca, CTX-M-15, isolate number 2, strains capable of hydrolysing cefotaxime
  results of the test: P
K. oxytoca, DHA-1 + SHV-75, isolate number 1, strains capable of hydrolysing cefotaxime
  results of the test: P
K. pneumoniae, CMY-4 + OXA-204, isolate number 1, strains capable of hydrolysing cefotaxime
  results of the test: P
K. pneumoniae, CTX-M + KPC-3, isolate number 1, strains capable of hydrolysing cefotaxime
  results of the test: P
K. pneumoniae, CTX-M + MCR-1, isolate number 2, strains capable of hydrolysing cefotaxime
  results of the test: P
K. pneumoniae, CTX-M + NDM-1 + OXA-232, isolate number 1, strains capable of hydrolysing cefotaxime
  results of the test: P
K. pneumoniae, CTX-M + NDM-4 + KPC-2, isolate number 1, strains capable of hydrolysing cefotaxime
  results of the test: P
K. pneumoniae, CTX-M + NDM-5 + OXA-232, isolate number 1, strains capable of hydrolysing cefotaxime
  results of the test: P
K. pneumoniae, CTX-M + OXA-370, isolate number 1, strains capable of hydrolysing cefotaxime
  results of the test: P
K. pneumoniae, CTX-M + OXA-519, isolate number 1, strains capable of hydrolysing cefotaxime
  results of the test: P
K. pneumoniae, CTX-M + SHV-11 + TEM-1 + OXA-162, isolate number 1, strains capable of hydrolysing cefotaxime
  results of the test: P
K. pneumoniae, CTX-M + SHV-12 + GES-5, isolate number 1, strains capable of hydrolysing cefotaxime
  results of the test: P
K. pneumoniae, CTX-M-2, isolate number 1, strains capable of hydrolysing cefotaxime
  results of the test: P
K. pneumoniae, CTX-M-3 + SHV-1 + TEM-1 + VIM-19, isolate number 1, strains capable of hydrolysing cefotaxime
  results of the test: P
K. pneumoniae, CTX-M-3, isolate number 1, strains capable of hydrolysing cefotaxime
  results of the test: P
K. pneumoniae, CTX-M-8, isolate number 1, strains capable of hydrolysing cefotaxime
  results of the test: P
K. pneumoniae, CTX-M-14 + SHV-11 + TEM-1, isolate number 1, strains capable of hydrolysing cefotaxime
  results of the test: P
K. pneumoniae, CTX-M-15 + SHV-1 + TEM-1 + OXA-232 + OXA-1, isolate number 1, strains capable of hydrolysing cefotaxime
  results of the test: P
K. pneumoniae, CTX-M-15 + SHV-1 + TEM-1, isolate number 1, strains capable of hydrolysing cefotaxime
  results of the test: P
K. pneumoniae, CTX-M-15 + SHV-1, isolate number 1, strains capable of hydrolysing cefotaxime
  results of the test: P
K. pneumoniae, CTX-M-15 + SHV-11 + TEM-1 + NDM-1 + OXA-1 + OXA-181, isolate number 1, strains capable of hydrolysing cefotaxime
  results of the test: P
K. pneumoniae, CTX-M-15 + SHV-11 + TEM-1 + NDM-1 + OXA-1, isolate number 1, strains capable of hydrolysing cefotaxime
  results of the test: P
K. pneumoniae, CTX-M-15 + SHV-11, isolate number 1, strains capable of hydrolysing cefotaxime
  results of the test: P
K. pneumoniae, CTX-M-15 + SHV-27 + TEM-1 + NDM-1 + OXA-1 + OXA-181, isolate number 1, strains capable of hydrolysing cefotaxime
  results of the test: P
K. pneumoniae, CTX-M-15 + SHV-28 + TEM-1 + CMY + OXA-204, isolate number 1, strains capable of hydrolysing cefotaxime
  results of the test: P
K. pneumoniae, CTX-M-15 + SHV-99 + TEM-1, isolate number 1, strains capable of hydrolysing cefotaxime
  results of the test: P
K. pneumoniae, CTX-M-15 + TEM-1 + OXA-48, isolate number 1, strains capable of hydrolysing cefotaxime
  results of the test: P
K. pneumoniae, CTX-M-15 + TEM, isolate number 1, strains capable of hydrolysing cefotaxime
  results of the test: P
K. pneumoniae, CTX-M-15, isolate number 1, strains capable of hydrolysing cefotaxime
  results of the test: P
K. pneumoniae, CTX-M-18, isolate number 1, strains capable of hydrolysing cefotaxime
  results of the test: P
K. pneumoniae, CTX-M-19, isolate number 1, strains capable of hydrolysing cefotaxime
  results of the test: P
K. pneumoniae, DHA-2, isolate number 1, strains capable of hydrolysing cefotaxime
  results of the test: P
K. pneumoniae, GES-1, isolate number 1, strains capable of hydrolysing cefotaxime
  results of the test: P
K. pneumoniae, IMP-8, isolate number 1, strains capable of hydrolysing cefotaxime
  results of the test: P
K. pneumoniae, KPC + VIM, isolate number 1, strains capable of hydrolysing cefotaxime
  results of the test: P
K. pneumoniae, KPC-3, isolate number 1, strains capable of hydrolysing cefotaxime
  results of the test: P
K. pneumoniae, KPC-4 + NDM-7, isolate number 1, strains capable of hydrolysing cefotaxime
  results of the test: P
K. pneumoniae, MCR-1 + SHV-2 + SHV-106 + mgrB truncated in orf by IS5, isolate number 1, strains capable of hydrolysing cefotaxime
  results of the test: P
K. pneumoniae, NDM-1, isolate number 1, strains capable of hydrolysing cefotaxime
  results of the test: P
K. pneumoniae, NDM-5 + VIM-1 + OXA-181, isolate number 1, strains capable of hydrolysing cefotaxime
  results of the test: P
K. pneumoniae, OXA-48, isolate number 1, strains capable of hydrolysing cefotaxime
  results of the test: P
K. pneumoniae, OXA-163, isolate number 2, strains capable of hydrolysing cefotaxime
  results of the test: P
K. pneumoniae, OXA-517, isolate number 1, strains capable of hydrolysing cefotaxime
  results of the test: P
K. pneumoniae, SHV-2a, isolate number 1, strains capable of hydrolysing cefotaxime
  results of the test: P
K. pneumoniae, SHV-5 + IMP-1, isolate number 1, strains capable of hydrolysing cefotaxime
  results of the test: P
K. pneumoniae, SHV-5 + VIM-1, isolate number 2, strains capable of hydrolysing cefotaxime
  results of the test: P
K. pneumoniae, SHV-11 + OXA-48, isolate number 1, strains capable of hydrolysing cefotaxime
  results of the test: P
K. pneumoniae, SHV-11 + TEM-1 + KPC-3 + OXA-9, isolate number 1, strains capable of hydrolysing cefotaxime
  results of the test: P
K. pneumoniae, SHV-11, isolate number 1, strains capable of hydrolysing cefotaxime
  results of the test: P
K. pneumoniae, SHV-12 + IMP-8, isolate number 1, strains capable of hydrolysing cefotaxime
  results of the test: P
K. pneumoniae, SHV-36 + TEM-1, isolate number 1, strains capable of hydrolysing cefotaxime
  results of the test: P
K. pneumoniae, SHV-38, isolate number 1, strains capable of hydrolysing cefotaxime
  results of the test: P
K. pneumoniae, TEM-3, isolate number 1, strains capable of hydrolysing cefotaxime
  results of the test: P
P. mirabilis, ACC-1, isolate number 1, strains capable of hydrolysing cefotaxime
  results of the test: P
P. mirabilis, CTX-M-71, isolate number 1, strains capable of hydrolysing cefotaxime
  results of the test: P
P. mirabilis, N/A, isolate number 1, strains not capable of hydrolysing cefotaxime
  results of the test: N
P. mirabilis, OXA-23, isolate number 1, strains not capable of hydrolysing cefotaxime
  results of the test: N
P. mirabilis, OXA-58, isolate number 1, strains not capable of hydrolysing cefotaxime
  results of the test: N
P. mirabilis, TEM-52, isolate number 1, strains capable of hydrolysing cefotaxime
  results of the test: P
Salmonella spp., N/A, isolate number 1, strains not capable of hydrolysing cefotaxime
  results of the test: N
